Measurements reported in PMC5031577, “Preclinical evaluation of [^68Ga]NOTA-pentixafor for PET imaging of CXCR4 expression in vivo — a comparison to [^68Ga]pentixafor” (EJNMMI Research, 2016).
Read-outs that look alike come from different tables or passages of the source. Square brackets hold non-standard residues; d marks the D form. Side chains are listed from the residue outwards. Peptide text beside a SMILES is read from it. * marks the point of attachment. DOTA = O=C(O)CN1CCN(CC(=O)O)CCN(CC(=O)*)CCN(CC(=O)O)CC1; NOTA = O=C(O)CN1CCN(CC(=O)O)CCN(CC(=O)*)CC1; 2Nal = N[C@@H](Cc1ccc2ccccc2c1)C(=O)O; dNMeOrn = CN[C@H](CCCN)C(=O)O; 4Amb = NCc1ccc(C(=O)O)cc1

Experiments:
CXCR4 = details: Jurkat T cells, [^125I]FC131 radioligand; natGa-complexed peptides and metal-free precursors; determined previously; cited from earlier work
From the text: Table 1 Comparison of the lipophilicity and the in vitro CXCR4 targeting characteristics of [^68Ga]NOTA-pentixafor and [^68Ga]pentixafor | column: IC50 (nM)

[1] = design: method as in PMID 22045709; details: at 30 min p.i.; cited from earlier work
[2] = system: Daudi xenograft bearing CB-17 SCID mice; assay: Biodistribution in Daudi lymphoma xenograft bearing SCID mice; type: in vivo, mouse; details: tracer only, i.v., 1.5 h p.i., mean ± SD
Method: (§1) For PET (n = 3) and biodistribution studies (n = 5), an average of 15.2 MBq [^68Ga]NOTA-pentixafor (100 μL in PBS, 145 pmol, 171 ng) with a specific activity (AS) of 104 GBq/μmol was injected intravenously into the tail vein of isofluorane anesthesized female Daudi lymphoma-bearing SCID mice. […] After static PET imaging for 15 min (Inveon Siemens μPET scanner), the mice were sacrificed (90 min p.i.), and tissues and organs of interest were dissected, weighed, and counted for radioactivity in a γ-counter. The percentage of injected dose per gram of tissue (% ID/g) was calculated; data are shown as mean ± SD.

[3] = as above; type: in vivo, mouse; details: female, CB-17 SCID, mouse, iv, total radioactivity, mean ± SD
Method: as §1

[4] = Determination of tracer lipophilicity (logP); type: physicochemical; details: determined as published (method ref 22)
Method: General procedures and syntheses of the peptides are described in a recently reported protocol. Determination of tracer lipophilicity and serum stability as well as in vitro studies were performed as recently published. ^68Ga-labeling of peptides was performed as described using a fully automated system (Scintomics GmbH); briefly, the ^68Ge/^68Ga generator eluate fractions (1.25 mL) were reacted with 5 nmol of peptide. The mixture was buffered with 0.6 mL HEPES (pH = 7.4) to a final pH of 3–4 and heated to 95 °C for 5 min. After purification via one Sep-Pak C8 light cartridge, the ethanolic product fraction was diluted with PBS and used as such for the experiments.

[5] = Metabolite analysis of mouse plasma after i.v. injection; type: in vivo; details: CB17 SCID mouse, 50 MBq i.v., plasma at 60 min p.i., RP-HPLC with γ-counter
Method: All animal studies were conducted in accordance with the German Animal Welfare Act (Deutsches Tierschutzgesetz, approval No. 55.2-1-54-2532-71-13). For metabolite analysis, 50 MBq of [^68Ga]NOTA-pentixafor in a total volume of 200 μL of PBS was injected into the tail vein of a CB17 SCID mouse; the animal was sacrificed at 1 h p.i. and blood was collected. After sample preparation, as described in [24], the plasma samples were analyzed by reversed phase (RP)-HPLC and eluate fractions were analyzed using a γ-counter.

[6] = adrenals, 15.2 MBq, tracer only, i.v., 1.5 h p.i., read-out: Adrenals uptake
[7] = heart, 15.2 MBq, tracer only, i.v., 1.5 h p.i., read-out: Heart uptake
[8] = intestine, 15.2 MBq, tracer only, i.v., 1.5 h p.i., read-out: Intestine uptake
[9] = kidney, 15.2 MBq, tracer only, i.v., 1.5 h p.i., read-out: Kidney uptake
[10] = liver, 15.2 MBq, tracer only, i.v., 1.5 h p.i., read-out: Liver uptake
[11] = lung, 15.2 MBq, tracer only, i.v., 1.5 h p.i., read-out: Lung uptake
[12] = muscle, 15.2 MBq, tracer only, i.v., 1.5 h p.i., read-out: Muscle uptake
[13] = pancreas, 15.2 MBq, tracer only, i.v., 1.5 h p.i., read-out: Pancreas uptake
[14] = spleen, 15.2 MBq, tracer only, i.v., 1.5 h p.i., read-out: Spleen uptake
[15] = stomach, 15.2 MBq, tracer only, i.v., 1.5 h p.i., read-out: Stomach uptake

Row | Compound | tissue uptake at 1.5 h [3, 6] [%ID/g] | tissue uptake at 1.5 h [3, 7] [%ID/g] | tissue uptake at 1.5 h [3, 8] [%ID/g] | tissue uptake at 1.5 h [3, 9] [%ID/g] | tissue uptake at 1.5 h [3, 10] [%ID/g] | tissue uptake at 1.5 h [3, 11] [%ID/g] | tissue uptake at 1.5 h [3, 12] [%ID/g] | tissue uptake at 1.5 h [3, 13] [%ID/g] | tissue uptake at 1.5 h [3, 14] [%ID/g] | tissue uptake at 1.5 h [3, 15] [%ID/g] | logP [4] | other results
1 | Pentixafor | – | – | – | – | – | – | – | – | – | – | – | IC50 (CXCR4): 102 ± 17 nM
2 | CN1C(=O)[C@@H](Cc2ccc(O)cc2)NC(=O)CNC(=O)[C@H](Cc2ccc3ccccc3c2)NC(=O)[C@H](CCCNC(=N)N)NC(=O)[C@H]1CCCNC(=O)c1ccc(CNC(=O)CN2CCN(CC(=O)O)CCN(CC(=O)O)CCN(CC(=O)O)CC2)cc1 [[^68Ga]pentixafor, metal not drawn] (cyclo([dY][dNMeOrn]([4Amb-DOTA])R[2Nal]G)) | 3.68 ± 0.72 | 0.58 ± 0.17 | 0.7 ± 0.2 | 1.65 ± 0.91 | 2.05 ± 0.27 | 1.32 ± 0.29 | 0.19 ± 0.06 | 1.06 ± 0.22 | 0.3 ± 0.1 | 0.48 ± 0.08 | −2.90 | radiometabolites in mouse plasma (metabolic stability) [1]: complete absence of radiometabolites; Intestine uptake [2]: 0.67 ± 0.21 % ID/g
3 | CN1C(=O)[C@@H](Cc2ccc(O)cc2)NC(=O)CNC(=O)[C@H](Cc2ccc3ccccc3c2)NC(=O)[C@H](CCCNC(=N)N)NC(=O)[C@H]1CCCNC(=O)c1ccc(CNC(=O)CN2CCN(CC(=O)O)CCN(CC(=O)O)CC2)cc1 [[^68Ga]NOTA-pentixafor, metal not drawn] (cyclo([2Nal]G[dY][dNMeOrn]([4Amb-NOTA])R)) | 0.52 ± 0.3 | 0.34 ± 0.19 | 1.89 ± 0.83 | 2.71 ± 1.06 | 2.3 ± 0.88 | 0.73 ± 0.25 | 0.13 ± 0.1 | 0.12 ± 0.05 | 0.44 ± 0.22 | 0.45 ± 0.21 | −2.36 | tissue uptake at 1.5 h ([3]; adrenals, co-injection of 50 μg AMD3100, n = 3, 1.5 h p.i., read-out: Adrenals uptake): 0.48 ± 0.15 %ID/g; tissue uptake at 1.5 h ([3]; blood, 15.2 MBq, tracer only, i.v., 1.5 h p.i., read-out: Blood uptake): 0.65 ± 0.41 %ID/g; tissue uptake at 1.5 h ([3]; blood, co-injection of 50 μg AMD3100, n = 3, 1.5 h p.i., read-out: Blood uptake): 0.62 ± 0.26 %ID/g; tissue uptake at 1.5 h ([3]; bone, 15.2 MBq, tracer only, i.v., 1.5 h p.i., read-out: Bone uptake): 0.25 ± 0.18 %ID/g; tissue uptake at 1.5 h ([3]; bone, co-injection of 50 μg AMD3100, n = 3, 1.5 h p.i., read-out: Bone uptake): 0.16 ± 0.07 %ID/g; tissue uptake at 1.5 h ([3]; gallbladder, 15.2 MBq, tracer only, i.v., 1.5 h p.i., read-out: Gallbladder uptake): 3.61 ± 3 %ID/g; tissue uptake at 1.5 h ([3]; gallbladder, co-injection of 50 μg AMD3100, n = 3, 1.5 h p.i., read-out: Gallbladder uptake): 5.14 ± 2.24 %ID/g; tissue uptake at 1.5 h ([3]; heart, co-injection of 50 μg AMD3100, n = 3, 1.5 h p.i., read-out: Heart uptake): 0.36 ± 0.14 %ID/g; tissue uptake at 1.5 h ([3]; intestine, co-injection of 50 μg AMD3100, n = 3, 1.5 h p.i., read-out: Intestine uptake): 3.97 ± 0.92 %ID/g; tissue uptake at 1.5 h ([3]; kidney, co-injection of 50 μg AMD3100, n = 3, 1.5 h p.i., read-out: Kidney uptake): 3.56 ± 1.03 %ID/g; tissue uptake at 1.5 h ([3]; liver, co-injection of 50 μg AMD3100, n = 3, 1.5 h p.i., read-out: Liver uptake): 2.02 ± 0.76 %ID/g; tissue uptake at 1.5 h ([3]; lung, co-injection of 50 μg AMD3100, n = 3, 1.5 h p.i., read-out: Lung uptake): 0.95 ± 0.38 %ID/g; tissue uptake at 1.5 h ([3]; muscle, co-injection of 50 μg AMD3100, n = 3, 1.5 h p.i., read-out: Muscle uptake): 0.13 ± 0.05 %ID/g; tissue uptake at 1.5 h ([3]; pancreas, co-injection of 50 μg AMD3100, n = 3, 1.5 h p.i., read-out: Pancreas uptake): 0.16 ± 0.05 %ID/g; tissue uptake at 1.5 h ([3]; spleen, co-injection of 50 μg AMD3100, n = 3, 1.5 h p.i., read-out: Spleen uptake): 0.54 ± 0.19 %ID/g; tissue uptake at 1.5 h ([3]; stomach, co-injection of 50 μg AMD3100, n = 3, 1.5 h p.i., read-out: Stomach uptake): 0.58 ± 0.24 %ID/g; radiometabolites in mouse plasma (metabolic stability) [5]: complete absence of radiometabolites
